From patent US10800816B2 (Baxalta GmbH, priority 2012, dated 2020) come the findings set out here.

Where two headings read alike, the source gives them in different places. *1 amine or outer side, *2 acyl side, *3 side chain or, on linkers, in order; H or OH if unused. Where a SMILES comes first, the peptide text is derived from it. Bridges are numbered along the chain shown (N, C = ends). Side-chain parts run from the residue outwards. [ ]: non-standard residue; d: D form. The star is where a group is joined. X1 = CCCCCCCCCCCCCC(=O)NCCCOCCOCCOCCCN*; Suc = O=C(CCC(=O)[*:2])[*:1]; Tle = CC(C)(C)[C@H](N)C(=O)O; hCys = N[C@@H](CCS)C(=O)O; Hexanoyl = CCCCCC(=O)*; Aib = CC(C)(N)C(=O)O; Acm = CC(=O)NC*

The test system of data set [1] is Tissue Factor Pathway Inhibitor (TFPI). The data set can be described thus: IC50 ELISA | Mean IC50 [nM].
The subject of data set [2] is TFPI. Description: IC50 ELISA | Mean IC50 [nM].
The test system of data set [3] is TFPI. The data set can be described thus: IC50 ELISA | Mean IC50 [nM]. From the text:
Table printed on a drawing sheet, FIGURE 78Z
(§1) Head of the field: IC50 ELISA | Mean IC50 [nM]
First copying reader's note: Continued table: the first body row (45.67) belongs to a compound on the preceding sheet, the last row probably continues on the next sheet, and cells with several values list single replicates.
This is another data set of the same source. For orientation: An ELISA detects its analyte on a solid surface through an enzyme-linked reagent.

Data set [4] has as its system TFPI. Description: Progress Curves of Inhibition of FXa | % Inhibit (2.5μM). The protocol: Head of the field: Progress Curves of Inhibition of FXa | % Inhibit (2.5μM)
Data set [5] deals with TFPI. The data set can be described thus: Extrinsic Tenase Inhibition by TFPI | % Inhibit (2.5μM ).
Data set [6] deals with Tissue Factor Pathway Inhibitor (TFPI). The data set can be described thus: IC50 ELISA | Mean IC50 [nM]. The source holds these as a separate data set.
Data set [7] relates to TFPI. Description: IC50 ELISA | Mean IC50 [nM]. The source holds these as a separate data set.
The test system of data set [8] is Tissue Factor Pathway Inhibitor (TFPI). The data set can be described thus: IC50 ELISA | Mean IC50 [nM]. The source holds these as a separate data set.
Data set [9] has as its system TFPI. The conditions noted are these: read-out: IC50 Mean.
Data set [10] deals with Tissue Factor Pathway Inhibitor (TFPI). Description: IC50 ELISA | IC50 [nM]. The source says:
Table printed on a drawing sheet, FIGURE 78E
(§2) Head of the field: IC50 ELISA | IC50 [nM]

Data set [11] has the same test system. The data set can be described thus: IC50 ELISA | IC50 [nM].
Source text: Table printed on a drawing sheet, FIGURE 78N
as §2
This is another data set of the same source.

The test system is the same in data set [12]. Description: IC50 ELISA | IC50 [nM].
Source text: Table printed on a drawing sheet, FIGURE 78Q
as §2
The source holds these as a separate data set.

For data set [13] the test system is unchanged. Description: IC50 ELISA | IC50 [nM].
Source text: Table printed on a drawing sheet, FIGURE 78S
as §2
This is another data set of the same source.

The test system is the same in data set [14]. The data set can be described thus: IC50 ELISA | IC50 [nM].
Source text: Table printed on a drawing sheet, FIGURE 78U
as §2
This is another data set of the same source.

The test system is the same in data set [15]. The data set can be described thus: IC50 ELISA | Mean IC50 [nM]. The source holds these as a separate data set.
Data set [16] has the same test system. Description: IC50 ELISA | Mean IC50 [nM].
Source text: Table printed on a drawing sheet, FIGURE 78M
as §1
This is another data set of the same source.

Data set [17] shares this test system. The data set can be described thus: IC50 ELISA | Mean IC50 [nM]. The source holds these as a separate data set.
Data set [18] has the same test system. The data set can be described thus: IC50 ELISA | Mean IC50 [nM]. The source holds these as a separate data set.
A further data set in a line: FIGURE 78W. From the text: Table printed on a drawing sheet, FIGURE 78W
Data set [19] deals with Tissue Factor Pathway Inhibitor (TFPI). Description: IC50 ELISA | IC50 [nM].
Source text: Table printed on a drawing sheet, FIGURE 78R
as §2
This is another data set of the same source.

The subject of data set [20] is TFPI. The data set can be described thus: Progress Curves of Inhibition of FXa | % Inhibit (2.5µM).
The subject of data set [21] is TFPI. The data set can be described thus: Extrinsic Tenase Inhibition by TFPI | % Inhibit (2.5µM).
For data set [22], the system named is TFPI. Description: Progress Curves of Inhibition of FXa | % Inhibit (2.5µM). This is another data set of the same source.
Data set [23] deals with TFPI. Description: Extrinsic Tenase Inhibition assay | % Inhibition @ 2.5µM.
In data set [24] the test system is Tissue Factor Pathway Inhibitor (TFPI). The data set can be described thus: IC50 ELISA | Mean IC50 [nM]. This is another data set of the same source.

The term IC50 denotes the concentration needed to halve the response being measured.

As for `CC(=O)N[C@@H](Cc1ccccc1)C(=O)N[C@@H](CCC(N)=O)C(=O)N[C@@H](CO)C(=O)N[C@@H](CCCCN)C(=O)N1CCC[C@@H]1C(=O)N[C@@H](CC(N)=O)C(=O)N[C@H](C(=O)N[C@@H](Cc1c[nH]cn1)C(=O)N[C@H](C(=O)N[C@@H](CC(=O)O)C(=O)N[C@@H]1CSSCC[C@@H](C(=O)N[C@@H](CCCNC(=N)N)C(=O)N[C@@H](CC(C)C)C(=O)NC(C)(C)C(=O)N[C@@H](C)C(=O)N[C@@H](CCCCN)C(=O)N[C@@H](CC(C)C)C(N)=O)NC(=O)[C@H](Cc2ccccc2)NC(=O)[C@H](Cc2ccc(O)cc2)NC1=O)C(C)(C)C)C(C)C` [JBT00002494, Ac-FQSKpNVH-Tle-D[cYF-Hcy-]RL-Aib-AKL-NH2] (Ac-FQSK[dP]NVH[Tle]D[dC]YF[hCys]RL[Aib]AKL-NH2; disulfide 11-14), the IC50 in [1] is 2.84 nM.

With `CCCCCCCCCCCCCC(=O)NCCCOCCOCCOCCCNC(=O)CCC(=O)NCCCC[C@H](NC(=O)[C@H](CC(C)C)NC(=O)[C@H](CCCCN)NC(=O)[C@H](C)NC(=O)C(C)(C)NC(=O)[C@H](CC(C)C)NC(=O)[C@H](CCCNC(=N)N)NC(=O)[C@H](CCC(=O)O)NC(=O)[C@H](Cc1ccccc1)NC(=O)[C@H](Cc1ccc(O)cc1)NC(=O)[C@@H](C)NC(=O)[C@H](CC(=O)O)NC(=O)[C@@H](NC(=O)[C@H](Cc1c[nH]cn1)NC(=O)[C@@H](NC(=O)[C@H](CSCNC(C)=O)NC(=O)[C@H]1CCCN1C(=O)[C@H](CCCCN)NC(=O)[C@H](CO)NC(=O)[C@H](CCC(N)=O)NC(=O)[C@H](Cc1ccccc1)NC(=O)CCCCC)C(C)C)C(C)(C)C)C(N)=O` [JBT00002531, Hex-FQSKp-Cys(Acm)-VH-Tle-DaYFERL-Aib-AKLK(Ttds- Myr)--NH2] (Hexanoyl-FQSK[dP]C(Acm)VH[Tle]D[dA]YFERL[Aib]AKLK([Suc-X1])-NH2), the IC50 was determined as 27.2 nM with TFPI [2] and 27 nM with TFPI [3].

Molecule “(Ac-FQSKpNVHVDGYFERL-Aib-AKLC-NH2)2-M2PEG2000 [JBT00002523]” came in with an IC50 with TFPI [2] of 1.03 nM.

Turning to “Ac- KKPLAVQLHVSKRSKEMALARLYYKTSKK- NH2 (SEQ ID NO: 2129) (Ac-KKPLAVQLHVSKRSKEMALARLYYKTSKK-NH2) [JBT0229]”, the “Progress Curves of Inhibition of FXa | % Inhibit ([…])” value with TFPI [4] was found to be 0%. In addition, in the data set with TFPI [5], the “Extrinsic Tenase Inhibition by TFPI | % Inhibit ([…])” value was found to be 0%.

Turning to “Ac-FQ-Ede(O)-KpNVH-Tle-DaYFERL-Aib-AKL-NH2 [JBT00002453]”, the IC50 in [6] stood at 7.9 nM.

Regarding “Ac-FQSK-Nmg-NVFVFGYFERLRAKL-NH2 [JBT00000500]”, in the data set on TFPI [7], the IC50 is 93.4 nM.

“Ac-FQSK-nma-NVHVDGYFERL-Aib-AKL-NH2 [JBT00002280]” returned a half-maximal inhibitory concentration (IC50) in data set [8] of 4.6 nM.

As to “Ac-FQSKGNVFVTGYFDRLRAKL-NH2 [JBT0775 | 69]”, in the data set with TFPI [9], the concentration for half-maximal inhibition (IC50) was 22 nM.

For the molecule Ac-FQSKKNVFV-NH2 [JBT00002258], the IC50 in [10] is more than 5000 nM.

In data set [11], “Ac-FQSKpNVH-Nmv-DGYFERL-Aib-AKLC(NEM)-NH2 [JBT00002387]” gave an IC50 of more than 500 nM.

Turning to “Ac-FQSKpNVH-Tle-DGYFERL-Aib-A-Nmk-L-NH2 [JBT00002425]”, in data set [12], the IC50 is more than 500 nM.

In [13], “Ac-FQSKpNVH-Tle-DaYFERL-Aib-A-Opc-L-NH2 [JBT00002447]” registered an IC50 of more than 500 nM.

In [14], “Ac-FQSKpNVH-Tle-DaYF[-Hcy-RL-Aib--Hcy-]KL-NH2 [JBT00002489]” registered an IC50 of more than 500 nM.

The molecule “Ac-FQSKpNVHVDGYFERL-Aib-AKLC(ME-50MA)-NH2 [JBT00002325]” registered an IC50 in data set [15] of 6.6 nM.

“Ac-FQSKpNVHVDGYFERL-Aib-AKLC(ME-120MA)-NH2 [JBT00002326]”: in data set [15], inhibition was half-maximal at 9.3 nM (IC50).

In the case of “Ac-FQSKpNVHVDGYFERL-Aib-AKLC(ME-400MA)-NH2 [JBT00002329]”, the IC50 in data set [16] amounted to 20.8 nM.

In data set [17], “Ac-FQSKpNVHVDGYFERL-Aib-AKLK(AOA-40kDa PSA)- NH2 [JBT00002430]” displayed a half-maximal inhibitory concentration (IC50) of 15.4 nM.

For “Ac-FQSKpNVHVDGYFERL-Egz-AKL-NH2 [JBT00002302]”, the IC50 in [18] is 2.7 nM.

As for “Ac-FQSKpNVHVPcYF-Hcy-RL-Aib-AKL-NH2 [JBT00002499]”, in the data set “FIGURE 78W”, the “24 h Human Plasma Stability | Mean Remaining [%]” value came to 40.70%.

In [12], “Ac-FQVH-Tle-DGYFERL-Aib-AKL-NH2 [JBT00002428]” registered an IC50 of more than 500 nM.

In turn, “Ac-FqVH-Tle-DGYFERL-Aib-AKL-NH2 [JBT00002429]” yielded an IC50 in [19] of more than 500 nM.

For Ac-KWFCGMRDMKGTMSCVWVKFRYDTS- [JBT0324], the “Progress Curves of Inhibition of FXa | % Inhibit ([…])” value in the data set with TFPI [20] worked out at 0%.

For the molecule “Ac-SGGRKHKHFLRSNGKPSRALSS-NH2 (SEQ [JBT0424]”, the “Extrinsic Tenase Inhibition by TFPI | % Inhibit ([…])” value in the data set with TFPI [21] amounted to 0%. Further, the “Progress Curves of Inhibition of FXa | % Inhibit ([…])” value with TFPI [22] was found to be 1%.

For “Ac-SRYKWFGMR[CDMKGC]TMSVWVKF-NH2 (SEQ ID NO: 1162) (Ac-SRYKWFGMRCDMKGCTMSVWVKF-NH2; disulfide 10-15; SMILES CSCC[C@H](NC(=O)CNC(=O)[C@H](Cc1ccccc1)NC(=O)[C@H](Cc1c[nH]c2ccccc12)NC(=O)[C@H](CCCCN)NC(=O)[C@H](Cc1ccc(O)cc1)NC(=O)[C@H](CCCNC(=N)N)NC(=O)[C@H](CO)NC(C)=O)C(=O)N[C@@H](CCCNC(=N)N)C(=O)N[C@H]1CSSC[C@@H](C(=O)N[C@H](C(=O)N[C@@H](CCSC)C(=O)N[C@@H](CO)C(=O)N[C@H](C(=O)N[C@@H](Cc2c[nH]c3ccccc23)C(=O)N[C@H](C(=O)N[C@@H](CCCCN)C(=O)N[C@@H](Cc2ccccc2)C(N)=O)C(C)C)C(C)C)[C@@H](C)O)NC(=O)CNC(=O)[C@H](CCCCN)NC(=O)[C@H](CCSC)NC(=O)[C@H](CC(=O)O)NC1=O) [JBT0470]”, the “Extrinsic Tenase Inhibition assay | % Inhibition @ […]” value in the data set with TFPI [23] is reported as 2%.

In data set [24], “FAM-Ttds-FQSK-Nmg-NVFVDGYFERL-Aib-AKL-NH2 [JBT00002262]” returned an IC50 of 13.4 nM.

The molecule “Palm-FQSKpNVH-Tle-DaYFERL-Aib-AKL-NH2 [JBT00002440]” had an IC50 in data set [19] of more than 500 nM.
